Measured values: ChEMBL document CHEMBL5346924, “Optically activated MEK1/2 inhibitors (Opti-MEKi) as potential antimelanoma agents” (Eur J Med Chem, 2023)
The source made the active and inactive calls. The rule behind the calls is not given here.

Tests used:
CYP2C19 = CYP2C19 (Homo sapiens, UniProt P33261); assay: Inhibition of CYP2C19 in human microsomes at 10 uM in the presence of NADPH relative to control; type: ADME, Microsome
A-375 [1] = assay: Inhibition of colony formation in human A-375 cells preincubated with compound for 1 hrs followed by 365 nm light irradiation for 5 mins and measured for 10 days by crystal violet staining based analysis; type: functional, cell-based; details: dose 10-300 nM, time 14465.0 min
[2] = Metabolic stability in human liver microsomes assessed as parent compound remaining measured after 1 hrs in the absence of NADPH regenerating system; type: ADME, Microsome; details: read-out: Stability
A-375 [3] = assay: Antiproliferative activity against CM-Dil labelled human A-375 cells xenografted in Zebra fish AB assessed as suppression of tumor growth by measuring red fluorescence preincubated with compound followed by 365 nm light irradiation for 5 mins and measured after 48 hrs by fluorescence based analysis; type: functional, cell-based; details: dose 45-90 pM
[4] = target: T1, Dual specificity mitogen-activated protein kinase kinase 1 (Homo sapiens, UniProt Q02750); assay: Inhibition of MEK1 (unknown origin) incubated for 1 hrs in the presence of ATP by FRET-based Z'-Lyte assay
[5] = Photoactivation of the compound assessed as fold change in caging efficiency
[6] = target: T1, Dual specificity mitogen-activated protein kinase kinase 1; assay: Inhibition of recombinant human MEK1 at 1 uM
CYP3A4 = CYP3A4 (Homo sapiens, UniProt P08684); assay: Inhibition of CYP3A4 in human microsomes at 10 uM in the presence of NADPH relative to control; type: ADME, Microsome
[7] = target: Mitogen-activated protein kinase 3 (Homo sapiens) (UniProt P27361); assay: Inhibition of recombinant human ERK1 at 1 uM
[8] = target: Serine/threonine-protein kinase B-raf (Homo sapiens) (UniProt P15056); assay: Inhibition of recombinant human BRAF at 1 uM
A-375 [9] = assay: Inhibition of MEK/ERK/RSK signaling in human A-375 cells at 5 nM in the absence of light irradiation by Western blot analysis; type: cell-based
[10] = Metabolic stability in human liver microsomes assessed as half-life in the presence of NADPH regenerating system; type: ADME, Microsome
[11] = target: T2, Mitogen-activated protein kinase; ERK1/ERK2 (Homo sapiens, UniProt P27361+P28482); assay: Inhibition of ERK1/2 phosphorylation in human A-375 cells preincubated with compound for 1 hrs followed by 365 nm light irradiation for 5 mins and measured after 1 hrs compound treatment by Western blot analysis; type: cell-based; details: dose 1-100 nM, time 125.0 min
[12] = test system: Serine/threonine-protein kinase B-raf (Homo sapiens), P15056 [V600E]; assay: Inhibition of recombinant human BRAF V600E mutant at 1 uM
CYP1A2 = target: T3, CYP1A2 (Homo sapiens, UniProt P05177); assay: Inhibition of CYP1A2 in human microsomes at 10 uM in the presence of NADPH relative to control; type: ADME, Microsome
T3 sequence (P05177 whole entry): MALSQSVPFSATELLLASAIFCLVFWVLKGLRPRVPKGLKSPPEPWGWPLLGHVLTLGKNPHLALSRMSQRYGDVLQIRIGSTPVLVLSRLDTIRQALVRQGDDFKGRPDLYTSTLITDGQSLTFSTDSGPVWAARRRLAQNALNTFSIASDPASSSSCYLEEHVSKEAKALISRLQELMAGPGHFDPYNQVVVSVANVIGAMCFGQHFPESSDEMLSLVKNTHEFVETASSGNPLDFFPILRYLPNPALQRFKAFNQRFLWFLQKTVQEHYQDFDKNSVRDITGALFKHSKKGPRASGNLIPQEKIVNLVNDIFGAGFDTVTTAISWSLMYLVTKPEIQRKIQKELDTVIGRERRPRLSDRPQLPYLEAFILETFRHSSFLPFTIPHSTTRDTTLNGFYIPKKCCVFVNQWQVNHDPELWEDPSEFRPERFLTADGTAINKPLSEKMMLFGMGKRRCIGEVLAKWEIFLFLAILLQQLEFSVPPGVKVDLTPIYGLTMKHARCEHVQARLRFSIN

[13] = Metabolic stability in human liver microsomes assessed as parent compound remaining measured after 1 hrs in the presence of NADPH regenerating system; type: ADME, Microsome; details: read-out: Stability
A-375 [14] = assay: Inhibition of MEK/ERK/RSK signaling in human A-375 cells assessed as inhibition of RSK phosphorylation at 5 nM in the presence of 365 nm light irradiation for 30 sec to 5 min by Western blot analysis; type: cell-based
[15] = Stability in human blood plasma assessed as half-life; type: ADME, cell-free
[16] = target: Epidermal growth factor receptor (Homo sapiens) (UniProt P00533); assay: Inhibition of recombinant human EGFR at 1 uM
[17] = target: Dual specificity mitogen-activated protein kinase kinase 2 (Homo sapiens) (UniProt P36507); assay: Inhibition of recombinant human MEK2 at 1 uM
[18] = target: RAC-alpha serine/threonine-protein kinase (Homo sapiens) (UniProt P31749); assay: Inhibition of recombinant human AKT1 at 1 uM
A549 = assay: Antiproliferative activity against human A549 cells harboring KRAS […] mutant assessed as cell growth inhibition incubated for 72 hrs in the absence of UV irradiation by CellTiter-Glo luminescent assay; type: functional; details: A549, light or radiation study
[19] = Cytotoxicity against HEK293T cells assessed as cell growth inhibition incubated for 72 hrs by CellTiter-Glo luminescent assay; type: toxicity, cell-based, HEK-293T; details: human
[20] = target: Fibroblast growth factor receptor 1 (Homo sapiens) (UniProt P11362); assay: Inhibition of recombinant human FGFR1 at 1 uM
A-375 [21] = assay: Inhibition of MEK/ERK/RSK signaling in human A-375 cells assessed as inhibition of ERK phosphorylation at 5 nM in the presence of 365 nm light irradiation for 30 sec to 5 min by Western blot analysis; type: cell-based
A-375 [22] = assay: Inhibition of colony formation in human A-375 cells at 10 to 300 nM incubated for 10 days by crystal violet staining based analysis; type: functional, cell-based; details: dose 10-300 nM, time 10.0 day
A-375 [23] = assay: Antiproliferative activity against human A-375 cells harboring BRAF V600E mutant assessed as cell growth inhibition incubated for 72 hrs in the absence of UV irradiation by CellTiter-Glo luminescent assay; type: functional; details: A-375, light or radiation study
HCT-116 = assay: Antiproliferative activity against human HCT-116 cells harboring KRAS G13D mutant assessed as cell growth inhibition preincubated with compound for 1 hrs followed by UV irradiation for 5 mins and measured 72 hrs post compound treatment by CellTiter-Glo luminescent assay; type: functional; details: HCT-116, light or radiation study
A-375 [24] = assay: Antiproliferative activity against human A-375 cells harboring BRAF V600E mutant assessed as cell growth inhibition preincubated with compound for 1 hrs followed by UV irradiation for 5 mins and measured 72 hrs post compound treatment by CellTiter-Glo luminescent assay; type: functional; details: A-375, light or radiation study
[25] = target: T2, Mitogen-activated protein kinase; ERK1/ERK2; assay: Inhibition of ERK1/2 phosphorylation in human A-375 cells upto 10 uM incubated for 1 hrs in the absence of UV irradiation by Western blot analysis; type: cell-based
[26] = Selectivity ratio of GI50 for antiproliferative activity against human A-375 cells harboring BRAF V600E mutant in the absence of UV irradiation to GI50 for antiproliferative activity against human A-375 cells harboring BRAF V600E mutant in the presence of UV irradiation for 5 mins; type: functional

T1 sequence (Q02750 whole entry): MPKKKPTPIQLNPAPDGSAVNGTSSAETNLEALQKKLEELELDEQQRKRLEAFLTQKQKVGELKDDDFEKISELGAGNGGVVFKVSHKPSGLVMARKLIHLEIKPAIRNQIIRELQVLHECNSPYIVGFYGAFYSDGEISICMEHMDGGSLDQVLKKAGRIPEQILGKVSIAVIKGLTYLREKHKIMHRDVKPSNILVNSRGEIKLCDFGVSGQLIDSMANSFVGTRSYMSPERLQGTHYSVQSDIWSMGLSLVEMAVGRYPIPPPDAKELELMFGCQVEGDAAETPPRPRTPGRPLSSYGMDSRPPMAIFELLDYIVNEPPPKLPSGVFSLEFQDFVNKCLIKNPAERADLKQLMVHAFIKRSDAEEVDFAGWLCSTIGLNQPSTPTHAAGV
T2 sequence (P27361 whole entry, looked up): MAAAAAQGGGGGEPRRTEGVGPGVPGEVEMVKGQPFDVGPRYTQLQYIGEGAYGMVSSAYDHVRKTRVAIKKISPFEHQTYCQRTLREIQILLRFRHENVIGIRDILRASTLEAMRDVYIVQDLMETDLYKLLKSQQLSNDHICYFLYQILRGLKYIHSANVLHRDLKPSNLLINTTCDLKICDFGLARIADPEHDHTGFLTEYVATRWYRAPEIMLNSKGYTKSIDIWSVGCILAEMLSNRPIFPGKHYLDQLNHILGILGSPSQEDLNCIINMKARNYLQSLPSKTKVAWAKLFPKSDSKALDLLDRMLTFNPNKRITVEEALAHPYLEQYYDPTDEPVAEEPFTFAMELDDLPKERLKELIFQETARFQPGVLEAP
T2 sequence (P28482 whole entry, looked up): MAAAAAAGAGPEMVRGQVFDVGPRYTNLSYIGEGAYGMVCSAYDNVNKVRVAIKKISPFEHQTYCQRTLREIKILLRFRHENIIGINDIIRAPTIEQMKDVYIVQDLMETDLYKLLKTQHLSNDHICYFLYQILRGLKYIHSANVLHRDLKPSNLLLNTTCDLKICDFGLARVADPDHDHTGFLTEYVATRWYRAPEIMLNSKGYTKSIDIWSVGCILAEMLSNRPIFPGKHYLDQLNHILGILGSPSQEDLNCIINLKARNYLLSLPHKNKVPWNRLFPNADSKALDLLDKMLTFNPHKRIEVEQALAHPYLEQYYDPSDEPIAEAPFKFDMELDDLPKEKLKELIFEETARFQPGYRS
Sequence of Epidermal growth factor receptor (Homo sapiens) (P00533 whole entry): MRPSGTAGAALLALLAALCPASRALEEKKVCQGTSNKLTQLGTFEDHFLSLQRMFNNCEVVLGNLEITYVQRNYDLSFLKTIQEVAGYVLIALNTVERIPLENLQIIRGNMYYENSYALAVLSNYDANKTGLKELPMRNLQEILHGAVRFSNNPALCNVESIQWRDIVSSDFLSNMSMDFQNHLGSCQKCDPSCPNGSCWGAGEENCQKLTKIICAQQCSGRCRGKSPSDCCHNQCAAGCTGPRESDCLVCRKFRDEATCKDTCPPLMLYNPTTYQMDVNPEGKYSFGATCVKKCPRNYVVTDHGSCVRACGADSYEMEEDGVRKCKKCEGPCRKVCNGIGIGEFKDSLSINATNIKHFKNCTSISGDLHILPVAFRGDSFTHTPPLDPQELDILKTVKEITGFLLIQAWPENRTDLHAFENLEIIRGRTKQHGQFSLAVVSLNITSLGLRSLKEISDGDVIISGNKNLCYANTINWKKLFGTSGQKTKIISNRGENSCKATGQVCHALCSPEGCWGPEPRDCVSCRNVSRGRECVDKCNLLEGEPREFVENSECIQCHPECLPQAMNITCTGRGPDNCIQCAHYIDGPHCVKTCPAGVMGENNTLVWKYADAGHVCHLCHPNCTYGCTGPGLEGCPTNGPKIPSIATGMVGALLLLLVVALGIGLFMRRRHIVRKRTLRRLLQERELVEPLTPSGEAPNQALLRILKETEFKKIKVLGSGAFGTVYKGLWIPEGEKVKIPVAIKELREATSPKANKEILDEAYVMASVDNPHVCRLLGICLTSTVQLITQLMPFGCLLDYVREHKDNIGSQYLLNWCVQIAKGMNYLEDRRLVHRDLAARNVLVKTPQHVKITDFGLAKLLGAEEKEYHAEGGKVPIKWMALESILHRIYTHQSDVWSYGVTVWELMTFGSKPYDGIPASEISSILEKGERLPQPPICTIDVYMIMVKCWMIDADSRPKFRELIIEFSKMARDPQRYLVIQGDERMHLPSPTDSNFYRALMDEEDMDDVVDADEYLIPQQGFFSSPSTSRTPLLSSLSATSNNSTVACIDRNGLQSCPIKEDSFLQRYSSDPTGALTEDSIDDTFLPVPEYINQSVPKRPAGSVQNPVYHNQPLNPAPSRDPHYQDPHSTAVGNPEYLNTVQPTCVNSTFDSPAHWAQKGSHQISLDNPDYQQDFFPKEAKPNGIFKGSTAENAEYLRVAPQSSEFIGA
Sequence of CYP3A4 (P08684 whole entry): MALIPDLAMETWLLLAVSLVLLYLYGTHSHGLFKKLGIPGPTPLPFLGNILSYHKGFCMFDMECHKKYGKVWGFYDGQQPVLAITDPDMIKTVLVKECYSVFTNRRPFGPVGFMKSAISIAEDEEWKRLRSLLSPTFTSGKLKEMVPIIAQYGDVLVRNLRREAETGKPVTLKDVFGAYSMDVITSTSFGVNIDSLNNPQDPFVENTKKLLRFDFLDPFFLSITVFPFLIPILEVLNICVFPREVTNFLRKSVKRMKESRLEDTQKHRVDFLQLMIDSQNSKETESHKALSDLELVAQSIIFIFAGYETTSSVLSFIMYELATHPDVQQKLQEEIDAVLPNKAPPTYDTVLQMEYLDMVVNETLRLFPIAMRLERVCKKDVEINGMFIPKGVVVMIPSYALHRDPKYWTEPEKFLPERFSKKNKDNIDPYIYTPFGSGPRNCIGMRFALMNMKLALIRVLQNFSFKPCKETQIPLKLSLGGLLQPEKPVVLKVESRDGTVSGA
Sequence of RAC-alpha serine/threonine-protein kinase (Homo sapiens) (P31749 whole entry): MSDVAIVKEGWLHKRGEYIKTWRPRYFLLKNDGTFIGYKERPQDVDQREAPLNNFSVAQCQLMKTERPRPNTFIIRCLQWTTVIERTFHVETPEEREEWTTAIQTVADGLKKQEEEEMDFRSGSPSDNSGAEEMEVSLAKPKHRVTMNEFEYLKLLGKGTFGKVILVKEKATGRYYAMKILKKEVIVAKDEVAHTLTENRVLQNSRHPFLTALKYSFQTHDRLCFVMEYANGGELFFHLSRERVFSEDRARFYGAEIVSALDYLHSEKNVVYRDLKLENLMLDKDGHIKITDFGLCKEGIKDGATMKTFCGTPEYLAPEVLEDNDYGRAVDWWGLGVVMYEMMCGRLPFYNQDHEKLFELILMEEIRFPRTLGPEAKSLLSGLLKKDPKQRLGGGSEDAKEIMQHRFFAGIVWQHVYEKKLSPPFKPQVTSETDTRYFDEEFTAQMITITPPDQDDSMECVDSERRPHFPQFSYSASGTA
Sequence of Serine/threonine-protein kinase B-raf (Homo sapiens) (P15056 whole entry): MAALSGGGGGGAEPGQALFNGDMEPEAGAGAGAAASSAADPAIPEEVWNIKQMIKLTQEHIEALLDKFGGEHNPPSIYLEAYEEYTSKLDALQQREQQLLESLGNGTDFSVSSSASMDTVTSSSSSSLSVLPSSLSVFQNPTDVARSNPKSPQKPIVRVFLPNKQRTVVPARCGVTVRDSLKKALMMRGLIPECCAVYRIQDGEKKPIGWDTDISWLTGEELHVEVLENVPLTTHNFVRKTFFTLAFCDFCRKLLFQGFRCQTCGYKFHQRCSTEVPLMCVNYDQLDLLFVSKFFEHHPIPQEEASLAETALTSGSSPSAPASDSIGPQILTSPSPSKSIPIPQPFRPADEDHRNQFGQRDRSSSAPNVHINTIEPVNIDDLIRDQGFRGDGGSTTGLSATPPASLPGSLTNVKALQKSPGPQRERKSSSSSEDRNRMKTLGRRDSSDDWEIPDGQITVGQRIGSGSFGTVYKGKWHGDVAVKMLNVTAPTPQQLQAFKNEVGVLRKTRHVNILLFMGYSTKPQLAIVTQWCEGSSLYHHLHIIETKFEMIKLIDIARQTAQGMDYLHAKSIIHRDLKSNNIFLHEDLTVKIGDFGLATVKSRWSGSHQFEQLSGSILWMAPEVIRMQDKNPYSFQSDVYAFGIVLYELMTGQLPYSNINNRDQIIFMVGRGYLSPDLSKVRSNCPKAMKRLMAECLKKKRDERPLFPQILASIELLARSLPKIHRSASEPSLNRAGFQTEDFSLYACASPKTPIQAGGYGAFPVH
Sequence of Fibroblast growth factor receptor 1 (Homo sapiens) (P11362 22-822 limits assumed): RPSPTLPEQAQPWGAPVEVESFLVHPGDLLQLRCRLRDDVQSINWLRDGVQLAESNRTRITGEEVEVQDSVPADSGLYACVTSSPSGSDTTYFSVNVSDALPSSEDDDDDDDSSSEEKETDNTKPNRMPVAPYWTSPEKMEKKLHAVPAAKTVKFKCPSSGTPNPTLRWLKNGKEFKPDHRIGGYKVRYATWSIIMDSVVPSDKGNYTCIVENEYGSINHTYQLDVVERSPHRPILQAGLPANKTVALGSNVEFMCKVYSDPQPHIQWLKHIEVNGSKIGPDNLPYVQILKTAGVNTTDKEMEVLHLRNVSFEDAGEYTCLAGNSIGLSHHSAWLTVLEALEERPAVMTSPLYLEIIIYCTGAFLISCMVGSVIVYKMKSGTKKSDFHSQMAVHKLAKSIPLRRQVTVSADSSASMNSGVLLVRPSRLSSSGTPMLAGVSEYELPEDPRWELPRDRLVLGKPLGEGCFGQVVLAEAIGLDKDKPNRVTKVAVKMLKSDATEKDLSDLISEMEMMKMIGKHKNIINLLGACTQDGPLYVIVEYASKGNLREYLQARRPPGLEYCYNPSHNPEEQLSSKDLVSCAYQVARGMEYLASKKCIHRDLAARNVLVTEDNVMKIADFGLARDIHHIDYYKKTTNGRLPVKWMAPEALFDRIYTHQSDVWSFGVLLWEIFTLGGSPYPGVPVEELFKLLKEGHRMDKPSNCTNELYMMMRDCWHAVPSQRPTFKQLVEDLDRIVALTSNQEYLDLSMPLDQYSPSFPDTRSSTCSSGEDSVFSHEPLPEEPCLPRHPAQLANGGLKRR
Sequence of Serine/threonine-protein kinase B-raf (Homo sapiens), P15056 [V600E] (P15056 whole entry V600E): as the sequence (P15056 whole entry) above, with V600E counted along it
Sequence of Mitogen-activated protein kinase 3 (Homo sapiens) (P27361 whole entry): as the sequence (P27361 whole entry, looked up) above

COc1cc(C(C)O/C(=N\OC[C@H](O)CO)c2ccc(F)c(F)c2Nc2ccc(I)cc2F)c([N+](=O)[O-])cc1OC (stereo partly specified)
inhibition at 10 µM (CYP2C19): 44.6%
inhibition (A-375 [1]): Active
remaining at 1 h [2]: 84.5%
Activity (A-375 [3]): Dose-Dependent Effect
IC50 [4]: > 30 µM
fold change (FC) [5]: > 5085
inhibition [6]: inactive
inhibition at 10 µM (CYP3A4): 92.4%
inhibition [7]: inactive
inhibition [8]: inactive
inhibition (A-375 [9]): inactive
half-life [10]: 24.2 min
inhibition [11]: Dose-Dependent Effect
inhibition [12]: inactive
inhibition at 10 µM (CYP1A2): 0%
remaining at 1 h [13]: 13.6%
inhibition (A-375 [14]): Active
half-life [15]: > 289 min
inhibition [16]: inactive
inhibition [17]: inactive
inhibition [18]: inactive
GI50 (A549): > 10 µM
GI50 at 72 h [19]: > 10 µM
inhibition [20]: inactive
inhibition (A-375 [21]): Active
inhibition (A-375 [22]): inactive
GI50 (A-375 [23]): 12.7 µM
GI50 (HCT-116): 0.06 µM
GI50 (A-375 [24]): 0.00213 µM
inhibition [25]: inactive
RatioGI50 [26]: >5000
